Experimental data taken from patent US7125662B2, “Method of identifying putative antibiotic resistance genes” (priority 2000, dated 2006).
≈ marks a conversion by molar mass, not a printed value.

What was measured:
No Plasmid host = assay: MIC, host with no plasmid (Table 1); type: cell-based
Source text: (§1) The plasmid-borne ampC genes shown in Table 1 (below) have been cloned into a common vector to ensure that all genes are expressed at the same level.

[1] = tested on: host expressing Citrobacter freundii ampC gene CMY2; assay: MIC conferred by ampC gene CMY2 cloned into common vector; type: cell-based
Source text: (§2) The plasmid-borne ampC genes shown in Table 1 (below) have been cloned into a common vector to ensure that all genes are expressed at the same level. […] That is completely expected because those genes were isolated from clinical samples and identified on the basis of conferring resistance to clinical drugs. ampC genes from two strains of Citrobacter freundii that were isolated in the 1920's, in the pre-antibiotic era, were also cloned into the same vector.

[2] = tested on: host expressing Citrobacter freundii ampC gene CMY3b; assay: MIC conferred by ampC gene CMY3b cloned into common vector; type: cell-based
Source text: as §2

[3] = tested on: host expressing Citrobacter freundii ampC gene LAT1; assay: MIC conferred by ampC gene LAT1 cloned into common vector; type: cell-based
Source text: as §2

[4] = tested on: host expressing Citrobacter freundii ampC gene LAT2; assay: MIC conferred by ampC gene LAT2 cloned into common vector; type: cell-based
Source text: as §2

[5] = tested on: host expressing Citrobacter freundii ampC gene LAT3; assay: MIC conferred by ampC gene LAT3 cloned into common vector; type: cell-based
Source text: as §2

[6] = tested on: host expressing Citrobacter freundii ampC gene LAT4; assay: MIC conferred by ampC gene LAT4 cloned into common vector; type: cell-based
Source text: as §2

[7] = tested on: host expressing Citrobacter freundii ampC gene Cfre6879; assay: MIC conferred by ampC gene Cfre6879 cloned into common vector; type: cell-based; conditions: Cfre 6879, gene from organism isolated in the 1920's
Source text: as §2

[8] = tested on: host expressing Citrobacter freundii ampC gene Cfre8454; assay: MIC conferred by ampC gene Cfre8454 cloned into common vector; type: cell-based; conditions: for Minimum Inhibitory Concentration (MIC): Cfre 8454, gene from organism isolated in the 1920's
Source text: as §2

[9] = tested on: plasmid-borne ampC genes CMY-2, CMY-3b, LAT-1, LAT-2, LAT-3, and LAT-4; assay: Clinical resistance conferred by plasmid-borne ampC genes as a group; type: cell-based, Citrobacter freundii; conditions: all of CMY-2, CMY-3b, LAT-1, LAT-2, LAT-3, LAT-4
Source text: as §1

[10] = cited from earlier work; for Clin. = the MIC for clinical resistance: Table 1, β-lactams, unit assumed; for Minimum Inhibitory Concentration, Clinical Resistance: Table 2, aminoglycosides
E. coli K12 ampC = conditions: gene cloned into a plasmid, effective promoter; cited from earlier work
[11] = tested on: Salmonella enteritidis serovar typhimurium strain LT2; assay: MIC, native Salmonella strain LT2; type: cell-based; conditions: for sensitivity of the strain to the drug: native strain LT2; for MIC: Salmonella enterica, read-out: Minimum Inhibitory Concentration
DH5α-E/pACSE2 = assay: MIC, host with empty expression vector; type: cell-based, E. coli; conditions: for MIC: Escherichia coli, read-out: Minimum Inhibitory Concentration
Procedure: (§3) The putative AAC(6′) aminogylcoside N6′-acetyltransferase gene from Salmonella enteritidis serovar typhimurium strain LT2, designated AAC(6′)-Iaa, was amplified by PCR and cloned into the expression vector pACSE2 (U.S. patent application Ser. No. 09/640,882 to Hall, filed Aug. 18, 2000, which is hereby incorporated by reference in its entirety). The resulting plasmid was designated pAAC(6′)-Iaa (FIG. 2A). The sequence of the AAC(6′)-Iaa coding region was determined by automated DNA sequencing and was confirmed to be identical to the sequence obtained from the incomplete genome sequence database (FIG. 2B).

DH5α-E/pAAC(6′)-Iaa = assay: MIC, transgenic host expressing AAC(6′)-Iaa; type: cell-based, E. coli; conditions: for resistance conferred by plasmid pAAC(6′)-Iaa: transformed into E. coli strain DH5α-E; for MIC: Escherichia coli, read-out: Minimum Inhibitory Concentration
Procedure: as §3

[12] = tested on: evolved E. coli ampC gene; conditions: two or three laboratory-induced mutations; cited from earlier work
[13] = S. enteritidis serovar typhimurium LT2

With `CC(=O)OCC1=C(C(=O)O)N2C(=O)[C@@H](NC(=O)Cc3cccs3)[C@H]2SC1` [Cephalothin] the “Minimum Inhibitory Concentration (MIC)” value (No Plasmid host) was 4, the “Minimum Inhibitory Concentration (MIC)” value [1] was 1024 and the “Minimum Inhibitory Concentration (MIC)” value [2] was 2048. The “Minimum Inhibitory Concentration (MIC)” value [3] was 4096, the “Minimum Inhibitory Concentration (MIC)” value [4] was 4096 and the “Minimum Inhibitory Concentration (MIC)” value [5] was 2048. The “Minimum Inhibitory Concentration (MIC)” value [6] was 4096, the “Minimum Inhibitory Concentration (MIC)” value [7] was 1024 and the “Minimum Inhibitory Concentration (MIC)” value [8] was 2048. The clinical resistance conferred [9] was “confer clinical resistance”, the Clin. = the MIC for clinical resistance [10] was 32 mg/L and the clinical resistance conferred (E. coli K12 ampC) was “confers clinical resistance”.
With Gentamycin the “Minimum Inhibitory Concentration” value [11, 13] was 2 µg/mL, the “sensitivity of the strain to the drug” value [11] was “sensitive” and the “Minimum Inhibitory Concentration” value (DH5α-E/pACSE2) was 0.25 µg/mL. For the same compound, the “Minimum Inhibitory Concentration” value (DH5α-E/pAAC(6′)-Iaa; DH5α-E/pAAC(6′)-Iaa) was 0.5 µg/mL, the “resistance conferred by plasmid pAAC(6′)-Iaa” value (DH5α-E/pAAC(6′)-Iaa) was “not” and the “Minimum Inhibitory Concentration, Clinical Resistance” value [10] was 8 µg/mL.
With `NCC[C@H](O)C(=O)N[C@@H]1C[C@H](N)[C@@H](O[C@H]2O[C@H](CN)[C@@H](O)[C@H](O)[C@H]2O)[C@H](O)[C@H]1O[C@H]1O[C@H](CO)[C@@H](O)[C@H](N)[C@H]1O` [Amikacin] the MIC [11, 13] was 4 mg/L (≈ 6.83 µM), the “sensitivity of the strain to the drug” value [11] was “sensitive” and the MIC (DH5α-E/pACSE2) was 0.25 mg/L (≈ 0.427 µM). The MIC (DH5α-E/pAAC(6′)-Iaa; DH5α-E/pAAC(6′)-Iaa) was 8 mg/L (≈ 13.7 µM), the “resistance conferred by plasmid pAAC(6′)-Iaa” value (DH5α-E/pAAC(6′)-Iaa) was “not” and the “Minimum Inhibitory Concentration, Clinical Resistance” value [10] was 32 µg/mL.
In the case of `CC1(C)S[C@@H]2[C@H](NC(=O)[C@H](N)c3ccccc3)C(=O)N2[C@H]1C(=O)O` [Ampicillin], the “Minimum Inhibitory Concentration (MIC)” value (No Plasmid host) is reported as 2, the “Minimum Inhibitory Concentration (MIC)” value [1] is reported as 1024 and the “Minimum Inhibitory Concentration (MIC)” value [2] is reported as 1024. For the same compound, the “Minimum Inhibitory Concentration (MIC)” value [3] was 1024, the “Minimum Inhibitory Concentration (MIC)” value [4] was 2048 and the “Minimum Inhibitory Concentration (MIC)” value [5] was 1024. For the same compound, the “Minimum Inhibitory Concentration (MIC)” value [6] was 1024, the “Minimum Inhibitory Concentration (MIC)” value [7] was 1024 and the “Minimum Inhibitory Concentration (MIC)” value [8] was 2048. For the same compound, the clinical resistance conferred [9] was “confer clinical resistance”, the Clin. = the MIC for clinical resistance [10] was 32 mg/L and the clinical resistance conferred (E. coli K12 ampC) was “confers clinical resistance”.
In the case of `CO[C@@]1(NC(=O)C(C(=O)O)c2ccsc2)C(=O)N2[C@@H](C(=O)O)C(C)(C)S[C@@H]21` (some centres unmarked) [Temocillin], the “Minimum Inhibitory Concentration (MIC)” value (No Plasmid host) is reported as 4, the “Minimum Inhibitory Concentration (MIC)” value [1] is reported as 32 and the “Minimum Inhibitory Concentration (MIC)” value [2] is reported as 32. The “Minimum Inhibitory Concentration (MIC)” value [3] was 64, the “Minimum Inhibitory Concentration (MIC)” value [4] was 32 and the “Minimum Inhibitory Concentration (MIC)” value [5] was 64. The “Minimum Inhibitory Concentration (MIC)” value [6] was 64, the “Minimum Inhibitory Concentration (MIC)” value [7] was 32 and the “Minimum Inhibitory Concentration (MIC)” value [8] was 32. For the same compound, the clinical resistance conferred [9] was “confer clinical resistance”, the Clin. = the MIC for clinical resistance [10] was 32 mg/L and the “resistance conferred after further evolution” value [12] was “confer resistance”.
In the case of `NC[C@H]1O[C@H](O[C@H]2[C@H](O)[C@@H](O[C@H]3O[C@H](CO)[C@@H](O)[C@H](N)[C@H]3O)[C@H](N)C[C@@H]2N)[C@H](O)[C@@H](O)[C@@H]1O` [Kanamycin], the MIC [11, 13] is reported as 4 mg/L (≈ 8.26 µM), the MIC (DH5α-E/pACSE2) is reported as 0.125 mg/L (≈ 0.258 µM) and the MIC (DH5α-E/pAAC(6′)-Iaa; DH5α-E/pAAC(6′)-Iaa) is reported as 32 mg/L (≈ 66 µM).
With `CO/N=C(\C(=O)N[C@@H]1C(=O)N2C(C(=O)O)=C(COC(C)=O)CS[C@H]12)c1csc(N)n1` [Cefotaxime] the “Minimum Inhibitory Concentration (MIC)” value [1] was 64, the “Minimum Inhibitory Concentration (MIC)” value [2] was 64 and the “Minimum Inhibitory Concentration (MIC)” value [3] was 64. For the same compound, the “Minimum Inhibitory Concentration (MIC)” value [4] was 64, the “Minimum Inhibitory Concentration (MIC)” value [5] was 128 and the “Minimum Inhibitory Concentration (MIC)” value [6] was 256. For the same compound, the “Minimum Inhibitory Concentration (MIC)” value [7] was 128, the “Minimum Inhibitory Concentration (MIC)” value [8] was 128 and the clinical resistance conferred [9] was “confer clinical resistance”. For the same compound, the Clin. = the MIC for clinical resistance [10] was 64 mg/L.
In the case of `CO/N=C(\C(=O)N[C@@H]1C(=O)N2C(C(=O)O)=C(COC(N)=O)CS[C@H]12)c1ccco1` [Cefuroxime], the “Minimum Inhibitory Concentration (MIC)” value (No Plasmid host) is reported as 8, the “Minimum Inhibitory Concentration (MIC)” value [1] is reported as 256 and the “Minimum Inhibitory Concentration (MIC)” value [2] is reported as 1024. The “Minimum Inhibitory Concentration (MIC)” value [3] was 2048, the “Minimum Inhibitory Concentration (MIC)” value [4] was 256 and the “Minimum Inhibitory Concentration (MIC)” value [5] was 1024. The “Minimum Inhibitory Concentration (MIC)” value [6] was 2048, the “Minimum Inhibitory Concentration (MIC)” value [7] was 512 and the “Minimum Inhibitory Concentration (MIC)” value [8] was 512. For the same compound, the clinical resistance conferred [9] was “confer clinical resistance”, the Clin. = the MIC for clinical resistance [10] was 32 mg/L and the clinical resistance conferred (E. coli K12 ampC) was “confers clinical resistance”.
With `CCN1CCN(C(=O)N[C@@H](C(=O)N[C@@H]2C(=O)N3[C@@H]2SC(C)(C)[C@@H]3C(=O)O)c2ccccc2)C(=O)C1=O` [Pipericillin] the “Minimum Inhibitory Concentration (MIC)” value (No Plasmid host) was 2, the “Minimum Inhibitory Concentration (MIC)” value [1] was 256 and the “Minimum Inhibitory Concentration (MIC)” value [2] was 128. For the same compound, the “Minimum Inhibitory Concentration (MIC)” value [3] was 128, the “Minimum Inhibitory Concentration (MIC)” value [4] was 256 and the “Minimum Inhibitory Concentration (MIC)” value [5] was 512. The “Minimum Inhibitory Concentration (MIC)” value [6] was 512, the “Minimum Inhibitory Concentration (MIC)” value [7] was 512 and the “Minimum Inhibitory Concentration (MIC)” value [8] was 512. For the same compound, the clinical resistance conferred [9] was “confer clinical resistance”, the Clin. = the MIC for clinical resistance [10] was 128 mg/L and the “resistance conferred after further evolution” value [12] was “confer resistance”.
In the case of `NC[C@H]1O[C@H](O[C@H]2[C@H](O)[C@@H](O[C@H]3O[C@H](CO)[C@@H](O)[C@H](N)[C@H]3O)[C@H](N)C[C@@H]2N)[C@H](N)C[C@@H]1O` [Tobramycin], the MIC [11, 13] is reported as 4 mg/L (≈ 8.56 µM), the “sensitivity of the strain to the drug” value [11] is reported as “sensitive” and the MIC (DH5α-E/pACSE2) is reported as 0.25 mg/L (≈ 0.535 µM). The MIC (DH5α-E/pAAC(6′)-Iaa; DH5α-E/pAAC(6′)-Iaa) was 16 mg/L (≈ 34.2 µM), the “resistance conferred by plasmid pAAC(6′)-Iaa” value (DH5α-E/pAAC(6′)-Iaa) was “conferred resistance” and the “Minimum Inhibitory Concentration, Clinical Resistance” value [10] was 8 µg/mL.
With `C[C@H]1[C@H](NC(=O)/C(=N\OC(C)(C)C(=O)O)c2csc(N)n2)C(=O)N1S(=O)(=O)O` [Aztreonam] the “Minimum Inhibitory Concentration (MIC)” value [1] was 16, the “Minimum Inhibitory Concentration (MIC)” value [2] was 128 and the “Minimum Inhibitory Concentration (MIC)” value [3] was 256. The “Minimum Inhibitory Concentration (MIC)” value [4] was 64, the “Minimum Inhibitory Concentration (MIC)” value [5] was 64 and the “Minimum Inhibitory Concentration (MIC)” value [6] was 128. The “Minimum Inhibitory Concentration (MIC)” value [7] was 256, the “Minimum Inhibitory Concentration (MIC)” value [8] was 128 and the “resistance conferred after further evolution” value [12] was “confer resistance”.
In the case of `CC(C)(O/N=C(\C(=O)N[C@@H]1C(=O)N2C(C(=O)[O-])=C(C[n+]3ccccc3)CS[C@H]12)c1csc(N)n1)C(=O)O` [Ceftazidime], the “Minimum Inhibitory Concentration (MIC)” value (No Plasmid host) is reported as 0.25, the “Minimum Inhibitory Concentration (MIC)” value [1] is reported as 128 and the “Minimum Inhibitory Concentration (MIC)” value [2] is reported as 256. For the same compound, the “Minimum Inhibitory Concentration (MIC)” value [3] was 256, the “Minimum Inhibitory Concentration (MIC)” value [4] was 256 and the “Minimum Inhibitory Concentration (MIC)” value [5] was 256. For the same compound, the “Minimum Inhibitory Concentration (MIC)” value [6] was 256, the “Minimum Inhibitory Concentration (MIC)” value [7] was 512 and the “Minimum Inhibitory Concentration (MIC)” value [8] was 8. The resistance conferred ([8]; Cfre8454, without any additional mutations) was “does not confer clinical resistance”, the clinical resistance conferred [9] was “confer clinical resistance” and the Clin. = the MIC for clinical resistance [10] was 32 mg/L. The “resistance conferred after further evolution” value [12] was “confer resistance”.
